According to patent US10370412B2, “Beta-hairpin peptidomimetics” (Polyphor AG, priority 2013, dated 2019):
Where a SMILES comes first, the peptide text is derived from it. [ ]: non-standard residue; d: D form. Cha = N[C@@H](CC1CCCCC1)C(=O)O; Tle = CC(C)(C)[C@H](N)C(=O)O; dDab = NCC[C@@H](N)C(=O)O; Orn = NCCC[C@H](N)C(=O)O; Dab = NCC[C@H](N)C(=O)O

System: human red blood cells (hRBC)
Format: cell-based
Details: red cells of human, 1 h
How it was run: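 Compounds at 100 μg/ml incubated with 20% (v/v) washed human erythrocytes (~0.9×10^9 cells/ml final) for 1 h at 37° C with shaking. Supernatant OD540 read after 8-fold dilution; % hemolysis = OD540 sample / OD540 of 2.5% Triton X-100 lysis × 100, with PBS/0.001% acetic acid as 0%.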

| Structure (SMILES) | Hemolysis at 100 μg/ml |
| --- | --- |
| CC(C)C[C@@H]1NC(=O)[C@@H]2CCCN2C(=O)[C@H]2CCCN2C(=O)[C@H](CO)NC(=O)[C@H](CO)NC(=O)[C@H](C(C)(C)C)NC(=O)[C@H](CCN)NC(=O)[C@H](Cc2c[nH]c3ccccc23)NC(=O)[C@H](CCN)NC(=O)[C@@H](CCN)NC(=O)[C@H](CCCN)NC(=O)[C@H](CCN)NC(=O)[C@H](CC2CCCCC2)NC(=O)[C@H](Cc2c[nH]c3ccccc23)NC1=O [compound 37, cyclo(-Leu-Trp-Cha-Dab-Orn-^DDab-Dab-Trp-Dab-tBuGly-Ser-Ser-^DPro-Pro-)] (cyclo(LW[Cha][Dab][Orn][dDab][Dab]W[Dab][Tle]SS[dP]P)) | 1% |
| CC(C)C[C@@H]1NC(=O)[C@@H]2CCCN2C(=O)[C@H]2CCCN2C(=O)[C@H](CO)NC(=O)[C@H](Cc2ccc(O)cc2)NC(=O)[C@H](C(C)(C)C)NC(=O)[C@H](CCN)NC(=O)[C@H](Cc2c[nH]c3ccccc23)NC(=O)[C@H](CCN)NC(=O)[C@@H](CCN)NC(=O)[C@H](CCCN)NC(=O)[C@H](CCN)NC(=O)[C@H](Cc2ccc(O)cc2)NC(=O)[C@H](Cc2ccc(O)cc2)NC1=O [compound 38, cyclo(-Leu-Tyr-Tyr-Dab-Orn-^DDab-Dab-Trp-Dab-tBuGly-Tyr-Ser-^DPro-Pro-)] (cyclo(LYY[Dab][Orn][dDab][Dab]W[Dab][Tle]YS[dP]P)) | 0% |
